In brackets after ≈: the same amount, converted by molar mass.
How the values were obtained:
[1] = target: human soluble guanylate cyclase alpha 1 and beta 1 subunits (sGC) (Homo sapiens (Human), UniProt Q02108+Q02153); assay: sGC cellular activator assay (cGMP, HTRF), in the presence and absence of 50% human serum; format: cell-based; conditions: CHO cells stably expressing human sGC alpha 1/beta 1, preincubated with 40 microM ODQ; cGMP by HTRF; Table 2 does not state whether with or without 50% human serum
Chain of human soluble guanylate cyclase alpha 1 and beta 1 subunits (sGC) (Q02108 whole entry partner): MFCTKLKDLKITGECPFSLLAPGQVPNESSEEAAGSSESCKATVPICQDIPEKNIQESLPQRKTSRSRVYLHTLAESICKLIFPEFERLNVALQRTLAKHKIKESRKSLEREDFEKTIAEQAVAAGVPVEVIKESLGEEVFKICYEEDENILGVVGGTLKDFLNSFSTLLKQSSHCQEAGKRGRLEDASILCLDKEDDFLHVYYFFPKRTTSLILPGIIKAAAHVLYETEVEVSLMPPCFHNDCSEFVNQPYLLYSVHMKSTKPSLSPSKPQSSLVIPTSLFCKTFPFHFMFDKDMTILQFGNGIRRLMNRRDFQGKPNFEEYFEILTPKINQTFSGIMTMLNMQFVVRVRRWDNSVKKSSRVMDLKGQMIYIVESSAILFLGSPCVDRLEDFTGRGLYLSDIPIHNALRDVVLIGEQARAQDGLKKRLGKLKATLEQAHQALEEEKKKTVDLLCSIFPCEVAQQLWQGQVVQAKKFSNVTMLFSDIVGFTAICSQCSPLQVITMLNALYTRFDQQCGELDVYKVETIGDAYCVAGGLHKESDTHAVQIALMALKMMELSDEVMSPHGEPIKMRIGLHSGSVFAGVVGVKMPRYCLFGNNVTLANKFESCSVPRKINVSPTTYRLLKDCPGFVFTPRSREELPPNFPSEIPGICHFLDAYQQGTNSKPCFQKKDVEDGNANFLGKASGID
Chain of human soluble guanylate cyclase alpha 1 and beta 1 subunits (sGC) (Q02153 whole entry): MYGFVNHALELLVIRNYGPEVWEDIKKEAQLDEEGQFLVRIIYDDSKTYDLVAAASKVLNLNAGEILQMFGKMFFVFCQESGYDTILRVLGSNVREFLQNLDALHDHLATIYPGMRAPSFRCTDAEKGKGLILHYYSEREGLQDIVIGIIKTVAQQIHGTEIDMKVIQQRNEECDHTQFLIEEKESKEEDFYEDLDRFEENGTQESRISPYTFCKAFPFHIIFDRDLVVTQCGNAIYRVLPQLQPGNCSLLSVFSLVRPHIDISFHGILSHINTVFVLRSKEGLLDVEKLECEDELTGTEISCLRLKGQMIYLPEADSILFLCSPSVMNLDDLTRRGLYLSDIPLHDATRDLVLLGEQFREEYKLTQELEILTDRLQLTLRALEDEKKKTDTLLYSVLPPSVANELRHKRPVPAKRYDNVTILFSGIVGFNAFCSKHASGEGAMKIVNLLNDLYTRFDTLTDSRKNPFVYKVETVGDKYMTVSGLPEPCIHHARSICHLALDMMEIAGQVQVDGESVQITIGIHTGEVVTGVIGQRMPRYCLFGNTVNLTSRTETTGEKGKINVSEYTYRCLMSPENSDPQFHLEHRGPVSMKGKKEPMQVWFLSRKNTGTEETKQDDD
Outline: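 Heme-oxidized conditions: ODQ (40 microM, 1 h) pretreatment of CHO cells stably expressing human α1/β1 sGC, in buffer containing 0.1% BSA and IBMX.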

[2] = Human liver microsome (HLM) metabolic stability assay; format: in vitro ADME; conditions: human liver microsomes
Outline: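 Compound at 1 uM incubated with human liver microsomes at 37° C. for 60 min after NADPH addition. Aliquots quenched in cold acetonitrile at 0, 5, 15, 30 and 60 min and analysed by LC/MS/MS. t1/2 from ln(% remaining) vs time slope; CLint, CLh and % Qh derived from it (n=1).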

[3] = physchem; conditions: kinetic from dmso stock
[4] = pH 2.2, aqueous buffer, Solubility (pH 2.2)
[5] = pH 4.5, aqueous buffer, Solubility (pH 4.5)
[6] = pH 6.8, aqueous buffer, Solubility (pH 6.8)

Structure (SMILES) | EC50 [1] [nM] | Metabolic stability (Qh %), % hepatic blood flow [2] [%] | solubility at 24 h [3, 4] [µg/mL] | solubility at 24 h [3, 5] [µg/mL] | solubility at 24 h [3, 6] [µg/mL]
Cc1c(COc2ccccc2-c2ccnc(N3CC[C@@]4(C(=O)O)C[C@H]4C3)n2)ccc2c1CCN(C1CCOCC1)C2 [Compound 185] | 21 | 33 | 100 (≈ 180 µM) | 43 (≈ 77.5 µM) | 42 (≈ 75.7 µM)
CCc1cc(COc2c(C)cccc2-c2cccc(N3C[C@@H]4C[C@]4(C(=O)O)[C@H]3COC)n2)cc2c1CN(C1CCOCC1)CC2 [Compound 53] | 9 | <24 | 130 (≈ 212 µM) | 110 (≈ 180 µM) | 80 (≈ 131 µM)
Cc1ccc(OCc2ccc3c(c2C)CCN(C2COC2)C3)c(-c2cccc(N3CC[C@@]4(C(=O)O)C[C@H]4C3)n2)c1 [Compound 19] | 8 | 63 | 110 (≈ 204 µM) | 82 (≈ 152 µM) | 32 (≈ 59.3 µM)
CO[C@H]1CN(c2nc(-c3cccc(Cl)c3OCc3ccc4c(c3)[C@H](C)CN(C3COC3)CC4)cs2)CC[C@H]1C(=O)O [Compound 322] | 7 | 47 | 110 (≈ 184 µM) | 36.4 (≈ 60.9 µM) | 60.2 (≈ 101 µM)
CCO[C@@H]1CN(c2nccc(-c3cccc(C)c3OCc3ccc4c(c3C)CCN(C3CCOCC3)CC4)n2)CC[C@@H]1C(=O)O [Compound 276] | 150 | <24 | 126 (≈ 206 µM) | 84.8 (≈ 138 µM) | 90.6 (≈ 147 µM)
Cc1cc(CN2CCc3c(ccc(COc4ccccc4-c4cccc(N5CC[C@@]6(C(=O)O)C[C@H]6C5)n4)c3C)C2)no1 [Compound 311] | 3 | 63 | 99.5 (≈ 176 µM) | 61.6 (≈ 109 µM) | 0.5 (≈ 0.885 µM)
Cc1ccc(OCc2cc(C)c3c(c2)CCN(C2CCOC2)C3)c(-c2csc(N3CC[C@@]4(C(=O)O)C[C@H]4C3)n2)c1 (mixture of isomers) [Compound 122] | 11 | 43 | 120 | 18 | 1.6
Cc1cccc(-c2csc(N3C[C@@H]4C[C@]4(C(=O)O)C3)n2)c1OCc1cc(C#N)c2c(c1)CCN(C1COC1)C2 [Compound 141] | 34 | <24 | 110 (≈ 203 µM) | 38 (≈ 70 µM) | 81 (≈ 149 µM)
CO[C@@H]1CN(c2cccc(-c3cccc(C)c3OCc3ccc4c(c3C)CCN([C@H]3CCOC3)CC4)n2)CC[C@@H]1C(=O)O [Compound 301] | 1 | <24 | 141 (≈ 241 µM) | 105 (≈ 180 µM) | 91.1 (≈ 156 µM)
COC[C@H]1N(c2cccc(-c3cccc(C)c3OCc3cc(C)c4c(c3)OCCN(C3CCOCC3)C4)n2)C[C@@H]2C[C@@]21C(=O)O [Compound 314] | 529 | <24 | 115 (≈ 188 µM) | 110 (≈ 179 µM) | 98.9 (≈ 161 µM)
CCO[C@@H]1CN(c2nc(-c3cccc(C)c3OCc3cc(F)c4c(c3)CCN(C3CCOCC3)C4)cs2)CC[C@@H]1C(=O)O [Compound 238] | 4 | <24 | 112 (≈ 183 µM) | 109 (≈ 179 µM) | 109 (≈ 178 µM)
COC[C@H]1N(c2cccc(-c3cccc(C)c3OCc3ccc4c(c3)CCN(C3COC3)C4)n2)C[C@@H]2C[C@@]21C(=O)O [Compound 43] | 63 | <24 | 140 (≈ 252 µM) | 120 (≈ 216 µM) | 97 (≈ 175 µM)
Cc1ccc(OCc2ccc3c(c2)CCN(C2COC2)C3)c(-c2cccc(N3CC[C@@]4(C(=O)O)C[C@H]4C3)n2)c1 [Compound 17] | 22 | 33 | 100 (≈ 190 µM) | 83 (≈ 158 µM) | 39 (≈ 74.2 µM)
Cc1ccc(OCc2ccc3c(c2C)CCN(C2CCOCC2)C3)c(-c2cccc(N3CC[C@@]4(C(=O)O)C[C@H]4C3)n2)c1 [Compound 18] | 2 | 34 | 130 (≈ 229 µM) | 99 (≈ 174 µM) | 38 (≈ 66.9 µM)
CCOC[C@@H]1N(c2cccc(-c3cccc(C)c3OCc3cc(C)c4c(c3)CCN(C3CCOCC3)C4)n2)C[C@@H]2C[C@@]21C(=O)O [Compound 316] | 222 | 39 | 147 (≈ 240 µM) | 149 (≈ 243 µM) | 142 (≈ 232 µM)
CO[C@H]1CN(c2nc(-c3cccc(Cl)c3OCc3ccc4c(c3)[C@@H](C)CN(C3COC3)CC4)cs2)CC[C@H]1C(=O)O [Compound 321] | 3 | 47 | 112 (≈ 187 µM) | 41.5 (≈ 69.4 µM) | 50.5 (≈ 84.4 µM)
CO[C@@H]1CN(c2cccc(-c3cccc(C)c3OCc3ccc4c(c3C)CCN(C3CCOC3)CC4)n2)CC[C@@H]1C(=O)O (some centres unmarked) [Compound 283] | 4 | <24 | 124 (≈ 212 µM) | 89.4 (≈ 153 µM) | 68.4 (≈ 117 µM)
COc1cc(COc2c(C)cccc2-c2csc(N3CC[C@@H](C(=O)O)[C@@H](OC)C3)n2)cc2c1CN([C@H]1CCOC1)CC2 [Compound 211] | 18 | <24 | 133 (≈ 224 µM) | 83.4 (≈ 140 µM) | 76.5 (≈ 129 µM)
Cc1cc(COc2c(C)cccc2-c2cccc(N3C[C@@H]4C[C@]4(C(=O)O)C3)n2)cc2c1CN(C1CCOCC1)CC2 [Compound 22] | 6 | <24 | 110 (≈ 199 µM) | 90 (≈ 163 µM) | 60 (≈ 108 µM)
COC[C@H]1N(c2cccc(-c3cccc(C)c3OCc3cc(C)c4c(c3C)CCN(C3CCOCC3)C4)n2)C[C@@H]2C[C@@]21C(=O)O [Compound 215] | 10 | <24 | 143 (≈ 233 µM) | 135 (≈ 221 µM) | 129 (≈ 211 µM)
CO[C@H]1CN(c2cccc(-c3cccc(C)c3OCc3cc(F)c4c(c3)CCN(C3CCOCC3)CC4)n2)CC[C@H]1C(=O)O [Compound 273] | 5 | <24 | 120 (≈ 198 µM) | 80.7 (≈ 134 µM) | 64.3 (≈ 107 µM)
Cc1cccc(-c2csc(N3C[C@H]4C[C@@]4(C(=O)O)[C@@H]3C)n2)c1OCc1ccc2c(c1C)CCN(C1COC1)C2 [Compound 156] | 387 | <24 | > 140 | 0.5 (≈ 0.916 µM) | 8.9 (≈ 16.3 µM)
CO[C@@H]1CN(c2cccc(-c3cccc(C)c3OCc3ccc4c(c3)CCN(C3CCOCC3)C4)n2)CC[C@@H]1C(=O)O [Compound 67] | 23 | <24 | 100 (≈ 175 µM) | 92 (≈ 161 µM) | 71 (≈ 124 µM)
Cc1cc(COc2c(C)cccc2-c2csc(N3CC[C@@]4(C(=O)O)C[C@H]4C3)n2)cc2c1CN(C1CCOCC1)CC2 [Compound 96] | 2 | 33 | 120 (≈ 209 µM) | 68 (≈ 119 µM) | 52 (≈ 90.6 µM)
COC[C@@H]1N(c2cccc(-c3cccc(C)c3OCc3cc(C)c4c(c3)CCN(C3CCOCC3)C4)n2)C[C@H]2C[C@]21C(=O)O [Compound 63] | 96 | <24 | 130 (≈ 217 µM) | 130 (≈ 217 µM) | 130 (≈ 217 µM)
